Laboratory results: patent US11186571B2, “Quinazolinone derivatives useful for imaging” (LONDON HEALTH SCIENCES CENTRE RESEARCH INC., priority 2017, dated 2021)
Several values for one entry are separate records, joined by “and”; a condition that tells them apart may be missing. Identical values can stand only once. Like-named read-outs stand apart in the source and are kept apart here.

What was measured:
GHS-R1a [1] = biological target: T1, GHS-R1a (Homo sapiens, UniProt Q92847); experiment: Radioligand binding assay, displacement of [125I-His9]ghrelin(1-28); settings: for IC50: GHS-R1a transfected HEK293 cells, [125I-His9]ghrelin(1-28) radioligand, determined in applicant's lab; for binding affinity with GHS-R1a, stated in words: radioligand binding assay
T1 construct: expressed in transfected cells; host or cells: HEK293
T1 sequence (Q92847 whole entry): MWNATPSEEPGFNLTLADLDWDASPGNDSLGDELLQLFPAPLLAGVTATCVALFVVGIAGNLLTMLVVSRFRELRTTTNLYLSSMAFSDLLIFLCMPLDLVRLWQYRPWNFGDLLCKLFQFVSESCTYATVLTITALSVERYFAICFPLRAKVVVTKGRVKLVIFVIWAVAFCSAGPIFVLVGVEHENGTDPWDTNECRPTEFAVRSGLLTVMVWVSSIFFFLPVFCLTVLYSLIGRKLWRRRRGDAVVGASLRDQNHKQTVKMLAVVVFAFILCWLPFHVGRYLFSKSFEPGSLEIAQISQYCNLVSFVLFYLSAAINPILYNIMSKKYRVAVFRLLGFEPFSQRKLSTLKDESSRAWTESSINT
Method: The affinity for GHS-R1a was determined using a radioligand binding assay. […] The resulting suspension was incubated for 20 min with shaking (550 rpm). […] All binding assays were performed in triplicate.

GHS-R1a [2] = biological target: T1, GHS-R1a; settings: cited from earlier work; for Ki: literature value, read-out: Ki values reported in the literature

SMILES | IC50 (GHS-R1a [1]) | further results
Cc1ccccc1-c1nc2ccc(Oc3ccc(F)nc3)cc2c(=O)n1C[C@H]1CCCNC1 [Compound 4c, (S)-6-((6-fluoropyridin-3-yl)oxy)-3-(piperidin-3-ylmethyl)-2-(o-tolyl)quinazolin-4(3H)-one] | 68.5 nM | –
Cc1ccccc1-c1nc2ccc(Oc3ccc(F)cc3)cc2c(=O)n1C[C@H]1CCCN(CCF)C1 [Compound 5a, (S)-3-((1-(2-fluoroethyl)piperidin-3-yl)methyl)-6-(4-fluorophenoxy)-2-(o-tolyl)quinazolin-4(3H)-one] | 29.5 nM | –
Cc1ccccc1-c1nc2ccc(C(=O)c3ccc(F)cc3)cc2c(=O)n1C[C@H]1CCCN(C(C)C)C1 [Compound 20, (S)-6-(4-fluorobenzoyl)-3-((1-isopropylpiperidin-3-yl)methyl)-2-(o-tolyl)quinazolin-4(3H)-one] | 3.8 nM | binding affinity with GHS-R1a, stated in words (GHS-R1a [1]): equivalent binding affinity to natural ghrelin
Cc1ccccc1-c1nc2ccc(Oc3ccc(Oc4ccc(F)cn4)nc3)cc2c(=O)n1C[C@H]1CCCNC1 [Compound 4d, (S)-6-((6-((5-fluoropyridin-2-yl)oxy)pyridin-3-yl)oxy)-3-(piperidin-3-ylmethyl)-2-(o-tolyl)quinazolin-4(3H)-one] | 82.9 nM | –
Cc1ccccc1-c1nc2ccc(Oc3ccc4ncsc4c3)cc2c(=O)n1C[C@H]1CCCN(CCO)C1 [Compound 5i, (S)-6-(benzo[d]thiazol-6-yloxy)-3-((1-(2-hydroxyethyl)piperidin-3-yl)methyl)-2-(o-tolyl)quinazolin-4(3H)-one] | 0.4 nM | binding affinity with GHS-R1a, stated in words (GHS-R1a [1]): sub-nanomolar binding affinity
CC(=O)N1CCN(c2ccc(Oc3ccc4nc(-c5ccccc5C)n(C[C@H]5CCCNC5)c(=O)c4c3)cc2)CC1 [Compound 4f, (S)-6-(4-(4-acetylpiperazin-1-yl)phenoxy)-3-(piperidin-3-ylmethyl)-2-(o-tolyl)quinazolin-4(3H)-one] | 587 nM | –
Cc1ccccc1-c1nc2ccc(Oc3ccc4ncsc4c3)cc2c(=O)n1C[C@H]1CCCNC1 [Compound 4e, (S)-6-(benzo[d]thiazol-6-yloxy)-3-(piperidin-3-ylmethyl)-2-(o-tolyl)quinazolin-4(3H)-one] | 5.3 nM | –
O=c1c2cc(Oc3ccc4ncsc4c3)ccc2nc(-c2ccccc2F)n1C[C@H]1CCCNC1 [Compound 9b, (S)-6-(benzo[d]thiazol-6-yloxy)-2-(2-fluorophenyl)-3-(piperidin-3-ylmethyl)quinazolin-4(3H)-one] | 16 nM | –
Cc1ccccc1-c1nc2ccc(Oc3ccc(F)cc3)cc2c(=O)n1C[C@H]1CCCNC1 [Compound 4a, (S)-6-(4-fluorophenoxy)-3-(piperidin-3-ylmethyl)-2-(o-tolyl)quinazolin-4(3H)-one, reference compound] | 5.6 nM | Ki (GHS-R1a [2]): 0.9 nM
Cc1ccccc1-c1nc2ccc(Oc3ccc4ncsc4c3)cc2c(=O)n1C[C@H]1CCCN(CCF)C1 [Compound 5e, (S)-6-(benzo[d]thiazol-6-yloxy)-3-((1-(2-fluoroethyl)piperidin-3-yl)methyl)-2-(o-tolyl)quinazolin-4(3H)-one] | 9.3 nM | –
Cc1ccccc1-c1nc2ccc(Oc3ccc(F)nc3)cc2c(=O)n1C[C@H]1CCCN(CCF)C1 [Compound 5c, (S)-3-((1-(2-fluoroethyl)piperidin-3-yl)methyl)-6-((6-fluoropyridin-3-yl)oxy)-2-(o-tolyl)quinazolin-4(3H)-one] | 64.2 nM and 62.4 nM | –
Cc1ccccc1-c1nc2ccc(C(=O)c3ccc(F)cc3)cc2c(=O)n1C[C@H]1CCCNC1 [Compound 19, (S)-6-(4-fluorobenzoyl)-3-(piperidin-3-ylmethyl)-2-(o-tolyl)quinazolin-4(3H)-one] | 4 nM | –

More lines, main results first:

IC50 (GHS-R1a [1]) | SMILES | further results
8.1 nM | O=c1c2cc(Oc3ccc4ncsc4c3)ccc2nc(-c2ccccc2F)n1C[C@H]1CCCN(CCF)C1 [Compound 10c, (S)-6-(benzo[d]thiazol-6-yloxy)-3-((1-(2-fluoroethyl)piperidin-3-yl)methyl)-2-(2-fluorophenyl)quinazolin-4(3H)-one] | –
353 nM | O=c1c2cc(Oc3ccc(F)cn3)ccc2nc(-c2ccc(OCCO)cc2F)n1C[C@H]1CCCNC1 [Compound 14a, (S)-2-(2-fluoro-4-(2-hydroxyethoxy)phenyl)-6-((5-fluoropyridin-2-yl)oxy)-3-(piperidin-3-ylmethyl)quinazolin-4(3H)-one] | –
70.5 nM | CC(C)N1CCC[C@H](Cn2c(-c3ccccc3F)nc3ccc(Oc4ccc(F)cn4)cc3c2=O)C1 [Compound 10a, (S)-2-(2-fluorophenyl)-6-((5-fluoropyridin-2-yl)oxy)-3-((1-isopropylpiperidin-3-yl)methyl)quinazolin-4(3H)-one] | –
40.1 nM | CC(C)N1CCC[C@H](Cn2c(-c3ccc(OCCO)cc3F)nc3ccc(Oc4ccc(F)cn4)cc3c2=O)C1 [Compound 15a, (S)-2-(2-fluoro-4-(2-hydroxyethoxy)phenyl)-6-((5-fluoropyridin-2-yl)oxy)-3-((1-isopropylpiperidin-3-yl)methyl)quinazolin-4(3H)-one] | –
0.33 nM | CC(C)N1CCC[C@H](Cn2c(-c3ccc(OCCF)cc3F)nc3ccc(Oc4ccc(F)cc4)cc3c2=O)C1 [Compound 17b, (S)-2-(2-fluoro-4-(2-fluoroethoxy)phenyl)-6-(4-fluorophenoxy)-3-((1-isopropylpiperidin-3-yl)methyl)quinazolin-4(3H)-one] | binding affinity with GHS-R1a, stated in words (GHS-R1a [1]): sub-nanomolar binding affinity
935 nM | O=c1c2cc(Oc3ccc(F)cn3)ccc2nc(-c2ccccc2F)n1C[C@H]1CCCNC1 [Compound 9a, (S)-2-(2-fluorophenyl)-6-((5-fluoropyridin-2-yl)oxy)-3-(piperidin-3-ylmethyl)quinazolin-4(3H)-one] | –
2.3 nM | CC(C)N1CCC[C@H](Cn2c(-c3ccc(OCCO)cc3F)nc3ccc(Oc4ccc(F)cc4)cc3c2=O)C1 [Compound 15b, (S)-2-(2-fluoro-4-(2-hydroxyethoxy)phenyl)-6-(4-fluorophenoxy)-3-((1-isopropylpiperidin-3-yl)methyl)quinazolin-4(3H)-one] | binding affinity with GHS-R1a, stated in words (GHS-R1a [1]): equivalent binding affinity to natural ghrelin
1.8 nM | Cc1ccccc1-c1nc2ccc(Oc3ccc4ncsc4c3)cc2c(=O)n1C[C@H]1CCCN(C(C)C)C1 [Compound 5g, (S)-6-(benzo[d]thiazol-6-yloxy)-3-((1-isopropylpiperidin-3-yl)methyl)-2-(o-tolyl)quinazolin-4(3H)-one] | binding affinity with GHS-R1a, stated in words (GHS-R1a [1]): equivalent binding affinity to natural ghrelin
3.7 nM | Cc1ccccc1-c1nc2ccc(Oc3ccc(F)cc3)cc2c(=O)n1C[C@H]1CCCN(C(C)C)C1 [Compound 5f, (S)-6-(4-fluorophenoxy)-3-((1-isopropylpiperidin-3-yl)methyl)-2-(o-tolyl)quinazolin-4(3H)-one, reference compound] | IC50 (GHS-R1a [2]; literature value (Bayer work), read-out: IC50 reported for prior art compound): 0.9 nM; Ki (GHS-R1a [2]): 0.9 nM; binding affinity with GHS-R1a, stated in words (GHS-R1a [1]): equivalent binding affinity with natural ghrelin
52 nM | Cc1ccccc1-c1nc2ccc(Oc3ccc(F)cn3)cc2c(=O)n1C[C@H]1CCCNC1 [Compound 4b, (S)-6-((5-fluoropyridin-2-yl)oxy)-3-(piperidin-3-ylmethyl)-2-(o-tolyl)quinazolin-4(3H)-one] | –
19.8 nM | O=c1c2cc(Oc3ccc(F)cc3)ccc2nc(-c2ccc(OCCO)cc2F)n1C[C@H]1CCCNC1 [Compound 14b, (S)-2-(2-fluoro-4-(2-hydroxyethoxy)phenyl)-6-(4-fluorophenoxy)-3-(piperidin-3-ylmethyl)quinazolin-4(3H)-one] | –
20.6 nM | Cc1ccccc1-c1nc2ccc(Oc3ccc(F)cn3)cc2c(=O)n1C[C@H]1CCCN(CCF)C1 [Compound 5b, (S)-3-((1-(2-fluoroethyl)piperidin-3-yl)methyl)-6-((5-fluoropyridin-2-yl)oxy)-2-(o-tolyl)quinazolin-4(3H)-one] | –
65.2 nM | Cc1ccccc1-c1nc2ccc(Oc3ccc(Oc4ccc(F)cn4)nc3)cc2c(=O)n1C[C@H]1CCCN(CCO)C1 [Compound 5d, (S)-6-((6-((5-fluoropyridin-2-yl)oxy)pyridin-3-yl)oxy)-3-((1-(2-hydroxyethyl)piperidin-3-yl)methyl)-2-(o-tolyl)quinazolin-4(3H)-one] | –
> 1000 nM | Cc1ccccc1-c1nc2ccc(Oc3ccc(F)cn3)cc2c(=O)n1C[C@H]1CCCN(C(=O)C(C)F)C1 (stereo partly drawn) [Compound 5j, 3-(((3S)-1-(2-fluoropropanoyl)piperidin-3-yl)methyl)-6-((5-fluoropyridin-2-yl)oxy)-2-(o-tolyl)quinazolin-4(3H)-one] | –
17.6 nM | CC(C)N1CCC[C@H](Cn2c(-c3ccc(OCCF)cc3F)nc3ccc(Oc4ccc(F)cn4)cc3c2=O)C1 [Compound 17a, (S)-2-(2-fluoro-4-(2-fluoroethoxy)phenyl)-6-((5-fluoropyridin-2-yl)oxy)-3-((1-isopropylpiperidin-3-yl)methyl)quinazolin-4(3H)-one] | –
0.02 nM | CC(C)N1CCC[C@H](Cn2c(-c3ccccc3F)nc3ccc(Oc4ccc5ncsc5c4)cc3c2=O)C1 [Compound 10b, (S)-6-(benzo[d]thiazol-6-yloxy)-2-(2-fluorophenyl)-3-((1-isopropylpiperidin-3-yl)methyl)quinazolin-4(3H)-one] | binding affinity with GHS-R1a, stated in words (GHS-R1a [1]): sub-nanomolar binding affinity
